From patent US20200087248A1, “Fluoroallylamine Derivative And Use Thereof” (SICHUAN KELUN-BIOTECH BIOPHARMACEUTICAL CO., LTD., priority 2017, published 2020)
Structures can show the parent of a compound that is named as a salt.

Tests used:
VAP-1 = molecular target: T1, VAP-1 (Homo sapiens, UniProt Q16853); test: Inhibition of the enzymatic activity of VAP-1 in vitro (Amplex Red); type: biochemical; details: VAP-1 protein about 20 nM, 10 min pre-incubation, benzylamine substrate; read-out: IC50, inhibition against the enzymatic activity of VAP-1
T1 construct: purchased R&D Systems
T1 sequence (Q16853 1-763): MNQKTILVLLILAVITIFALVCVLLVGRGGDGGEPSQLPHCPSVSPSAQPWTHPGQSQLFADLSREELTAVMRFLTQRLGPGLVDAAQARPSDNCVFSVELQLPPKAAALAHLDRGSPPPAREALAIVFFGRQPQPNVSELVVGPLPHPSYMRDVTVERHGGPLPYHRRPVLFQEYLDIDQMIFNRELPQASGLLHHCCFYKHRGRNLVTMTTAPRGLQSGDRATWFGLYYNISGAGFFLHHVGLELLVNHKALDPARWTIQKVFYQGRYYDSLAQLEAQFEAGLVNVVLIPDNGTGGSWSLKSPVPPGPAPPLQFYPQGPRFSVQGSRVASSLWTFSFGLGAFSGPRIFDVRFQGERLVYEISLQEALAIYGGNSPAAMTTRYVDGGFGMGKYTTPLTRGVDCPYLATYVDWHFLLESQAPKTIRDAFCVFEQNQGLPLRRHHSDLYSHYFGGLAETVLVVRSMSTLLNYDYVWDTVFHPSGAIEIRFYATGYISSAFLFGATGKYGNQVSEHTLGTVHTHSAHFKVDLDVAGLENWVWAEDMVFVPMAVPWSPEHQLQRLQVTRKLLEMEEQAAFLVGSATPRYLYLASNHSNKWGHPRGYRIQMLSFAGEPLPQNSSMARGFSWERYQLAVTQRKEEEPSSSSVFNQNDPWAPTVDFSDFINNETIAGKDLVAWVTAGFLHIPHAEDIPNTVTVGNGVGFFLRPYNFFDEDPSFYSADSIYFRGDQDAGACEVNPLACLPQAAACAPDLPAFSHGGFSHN
Experimental: Inhibition Experiment Against the Enzymatic Activity of VAP-1(Vascular Adhesion Protein 1) in vitro
(§1) Test kit: Amplex® Red Monoamine Oxidase Assay, Manufacturer: ThermoFisher
(§2) Reaction buffer solution: 50 mM PBS, pH 7.4
Enzyme: VAP-1, Manufacturer: R&D Systems
VAP-1 protein (about 20 nM) and different concentrations of the test compound were pre-incubated at room temperature for 10 minutes, followed by an addition of […] benzylamine hydrochloride, 1 U/mL HRP and 200 μM Amplex Red reagent according to the specification of the test kit to start the reaction. The reaction plate was placed in the enzyme marker, and in kinetic mode, fluorescence signals were measured at Ex/Em=540/590 nm. The relative inhibition activity of each concentration group was calculated, wherein the ratio (slope) of fluorescence signal to reaction time in the linear range is the reaction rate, the vehicle group (DMSO) is the negative control, and the reaction buffer solution group (without enzymes and the compounds) is the blank control. The half inhibition concentration (IC50) of the compound was calculated according to four-parameter model fitting curve.

[1] = molecular target: T2, VAP-1 in abdominal fat of mice (Mus musculus, UniProt O70423); test: Inhibition of the enzymatic activity of VAP-1 ex-vivo, abdominal fat after oral dosing; type: in vivo, BALBc mice; details: abdominal fat collected after six hours; for inhibition at 2 mg/kg / inhibition at 0.5 mg/kg: mouse, read-out: Inhibition rate (%) against the enzymatic activity of VAP-1 (ex-vivo); for inhibition at 2 mg/kg / Inhibition rate (%) against the enzymatic activity of VAP-1 (ex-vivo): 2 mg/kg oral; for inhibition at 0.5 mg/kg: 0.5 mg/kg oral
T2 construct: abdominal fat was collected and homogenized; from tissue; host or cells: abdominal fat of BALBc mice (homogenate supernatant)
T2 sequence (O70423 1-765): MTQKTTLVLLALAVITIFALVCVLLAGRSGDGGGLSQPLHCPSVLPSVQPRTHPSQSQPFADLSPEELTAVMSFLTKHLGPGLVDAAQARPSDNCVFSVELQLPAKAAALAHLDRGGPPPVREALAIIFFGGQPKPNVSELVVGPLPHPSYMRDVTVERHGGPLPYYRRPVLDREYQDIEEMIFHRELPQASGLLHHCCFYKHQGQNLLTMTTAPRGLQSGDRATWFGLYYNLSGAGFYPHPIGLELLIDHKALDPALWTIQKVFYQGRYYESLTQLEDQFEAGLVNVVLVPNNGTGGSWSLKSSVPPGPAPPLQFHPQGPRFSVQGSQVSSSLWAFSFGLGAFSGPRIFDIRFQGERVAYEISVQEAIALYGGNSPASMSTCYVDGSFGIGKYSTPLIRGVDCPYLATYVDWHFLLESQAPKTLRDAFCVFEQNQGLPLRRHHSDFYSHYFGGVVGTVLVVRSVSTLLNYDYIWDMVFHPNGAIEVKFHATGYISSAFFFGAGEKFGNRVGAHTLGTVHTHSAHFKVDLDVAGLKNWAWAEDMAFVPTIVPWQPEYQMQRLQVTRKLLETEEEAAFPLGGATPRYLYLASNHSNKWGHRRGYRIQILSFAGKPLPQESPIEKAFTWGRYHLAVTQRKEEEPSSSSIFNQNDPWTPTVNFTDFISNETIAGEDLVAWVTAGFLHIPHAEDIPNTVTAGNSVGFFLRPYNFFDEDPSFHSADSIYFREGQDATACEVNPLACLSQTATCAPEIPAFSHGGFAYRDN
Experimental: Inhibition Experiment Against the Enzymatic Activity (ex-vivo)
Tissue homogenate buffer solution (20 mM HEPES, pH 7.2, 1 mM EDTA, 250 mM sucrose, PMSF 0.2 mM)
as §2, §1
BALBc mice were administrated orally with different doses of the test compound, and the vehicle group was used as the control group. After six hours, abdominal fat was collected and homogenized at 1:20 (w/v) with the pre-cooled homogenate buffer solution, and thereafter, the homogenate was centrifuged at 10,000 g and 4° C. or 10 minutes, the supernatant was collected and stored at -80° C. for further use.
A test sample was diluted with the reaction buffer solution and successively added with the inhibition solution A: 1 μM Clorgyline+1 μM pargylin, to inhibit the activities of MAO-A and MAO-B, and the inhibition solution B: 1 μM Clorgyline+1 μM Pargylin+1 μM Mofegiline as the blank control, and after being incubated at room temperature for 20 min, 500 μM benzylamine hydrochloride, 1 U/mL HRP and 200 μM Amplex Red reagent were added to start the reaction. By referring to the method in “Experiment of inhibiting the enzymatic activity of VAP-1”, relative activity of each dose group was calculated, wherein the ratio of the fluorescent signal to reaction time in the linear range is the reaction rate, and the vehicle group is the positive control, thereby to study the inhibition of the compound against the enzymatic activity of VAP-1 in abdominal fat of mice.

hERG = molecular target: T3, hERG (Homo sapiens, UniProt Q12809); test: hERG fluorescence polarization inhibition experiment; details: hERG cell membrane, 25° C. 2 hours, read-out: hERG (IC50 range, competitive binding vs tracer)
T3 construct: purchased ThermoFisher; host or cells: hERG cell membrane supplied with the kit
Experimental: hERG (Ether-a-go-go-related Gene Potassium Channel) Inhibition Experiment
Reagent: Predictor™ hERG Fluorescence Polarization Assay Kit, Manufacturer: ThermoFisher
The above test kit was used to evaluate the potential of the compound for inducing heart QT prolongation. According to the method as indicated in the specification of the test kit, the test compound, the positive control (E4031) and negative control (Experimental buffer solution) in the kit were added to a microwell plate containing hERG cell membrane, and then a tracer having high affinity to hERG was added. The microwell plate was then incubated at 25° C. for 2 hours, a BMG PHAREStar polyfunctional enzyme marker was used to test the variations in the fluorescent polarization value. By calculating the percent inhibition rates (%) at different concentrations, the range of the half inhibition concentration (IC50) was determined:
Percent inhibition rate (%)=(1-(mP of the test compound-mP of 30 μM E4031)/(mP of experimental buffer solution-mP of 30 μM E4031))*100.

T3 sequence (Q12809 whole entry): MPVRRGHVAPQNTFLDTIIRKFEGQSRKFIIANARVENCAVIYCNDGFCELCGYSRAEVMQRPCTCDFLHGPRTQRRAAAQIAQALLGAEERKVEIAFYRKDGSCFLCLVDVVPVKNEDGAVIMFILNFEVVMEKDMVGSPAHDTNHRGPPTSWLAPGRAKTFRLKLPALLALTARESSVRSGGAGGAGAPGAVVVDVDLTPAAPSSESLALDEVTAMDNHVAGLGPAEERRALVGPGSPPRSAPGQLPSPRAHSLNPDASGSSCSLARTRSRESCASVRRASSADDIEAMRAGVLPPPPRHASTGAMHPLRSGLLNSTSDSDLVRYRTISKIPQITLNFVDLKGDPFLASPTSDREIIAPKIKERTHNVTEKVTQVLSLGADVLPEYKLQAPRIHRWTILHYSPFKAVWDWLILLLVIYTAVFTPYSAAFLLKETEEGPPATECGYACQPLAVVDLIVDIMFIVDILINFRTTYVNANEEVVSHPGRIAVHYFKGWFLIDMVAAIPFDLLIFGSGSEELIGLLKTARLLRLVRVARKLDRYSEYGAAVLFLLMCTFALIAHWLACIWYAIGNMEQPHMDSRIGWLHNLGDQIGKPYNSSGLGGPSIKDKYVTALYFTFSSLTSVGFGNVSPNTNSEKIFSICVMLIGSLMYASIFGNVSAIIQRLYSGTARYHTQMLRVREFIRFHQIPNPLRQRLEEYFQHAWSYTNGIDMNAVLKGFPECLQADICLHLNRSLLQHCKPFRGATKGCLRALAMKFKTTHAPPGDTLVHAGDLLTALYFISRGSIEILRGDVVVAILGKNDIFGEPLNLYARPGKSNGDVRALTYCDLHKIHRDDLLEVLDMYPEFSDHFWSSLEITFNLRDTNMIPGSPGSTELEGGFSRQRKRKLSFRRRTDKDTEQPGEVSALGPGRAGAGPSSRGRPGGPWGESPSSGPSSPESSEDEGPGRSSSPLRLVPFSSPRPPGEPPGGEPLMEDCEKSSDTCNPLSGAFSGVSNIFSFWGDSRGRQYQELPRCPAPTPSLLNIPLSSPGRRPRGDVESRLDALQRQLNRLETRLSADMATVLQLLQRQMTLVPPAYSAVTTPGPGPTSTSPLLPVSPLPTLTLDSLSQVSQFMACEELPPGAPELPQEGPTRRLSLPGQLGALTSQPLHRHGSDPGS

SMILES	IC50 (VAP-1) [nM]	inhibition at 2 mg/kg [1] [%]	inhibition at 0.5 mg/kg [1] [%]	Inhibition rate (%) against the enzymatic activity of VAP-1 (ex-vivo) [1]	IC50 (hERG) [nM]
NCC(=CF)COc1ccc(C(=O)N2CCC(c3ccccc3)CC2)cc1 [TM44, (4-((2-aminomethyl-3-fluoroallyl)oxy)phenyl)-(4-phenylpiperidin-1-yl)methanone trifluoroacetate]	3.4 ± 0.4	95.8 ± 6.2	–	–	> 10000
NC/C(=C/F)COc1ccc(-c2ncccn2)cc1 [TM39-Z, (Z)-2-(4-(2-pyrimidyl)phenoxymethyl)-3-fluoroallylamine trifluoroacetate]	0.7 ± 0.1	–	93.2 ± 3.9	–	> 10000
NC/C(=C/F)COc1ccc(C(=O)Nc2ccccc2)cc1 [TM1-Z, (Z)-N-phenyl-4-((2-aminomethyl-3-fluoroallyl)oxy)-benzamide trifluoroacetate]	0.7 ± 0.1	–	93.3 ± 5.4	–	> 10000
NCC(=CF)COc1ccc(-c2nc3ccccc3[nH]2)cc1.O=C(O)C(F)(F)F [TM42, 2-(4-(1H-benzoimidazol-2-yl)phenoxymethyl)-3-fluoroallylamine trifluoroacetate]	1.6 ± 0.2	106 ± 8.4	–	completely inhibited	> 10000
NC/C(=C/F)COc1ccc(-c2nc3ccccc3[nH]2)cc1 [TM42-Z, (Z)-2-(4-(1H-benzoimidazol-2-yl)phenoxymethyl)-3-ftuoroallylamine trifluoroacetate]	1.5 ± 0.1	–	–	–	> 10000
NCC(=CF)COc1ccc2c(c1)CN(Cc1ccc(Cl)cc1)C2=O [TM33, 5-((2-aminomethyl-3-fluoroallyl)oxy)-2-(4-chlorobenzyl)isoindolin-1-one]	3.3 ± 0.2	105 ± 9.1	–	completely inhibited	–
NCC(=CF)COc1ccc(-c2nc3ccc(Cl)cc3s2)cc1 [TM41, 2-(4-(6-chloro-benzothiazol-2-yl)phenoxymethyl)-3-fluoroallylamine trifluoroacetate]	4.8 ± 0.7	96.1 ± 17.4	–	–	–
NCC(=CF)COc1ccc2c(c1)CCNC2=O.O=C(O)C(F)(F)F [TM26, 6-((2-aminomethyl-3-fluoroallyl)oxy)-3,4-dihydroisoquinolin-1(2H)-one trifluoroacetate]	5.8 ± 1	112 ± 7.1	–	completely inhibited	> 30000

Continued, in another order:

IC50 (VAP-1) [nM]	inhibition at 2 mg/kg [1] [%]	inhibition at 0.5 mg/kg [1] [%]	Inhibition rate (%) against the enzymatic activity of VAP-1 (ex-vivo) [1]	SMILES	IC50 (hERG) [nM]
0.9 ± 0.1	91.9 ± 6.4	–	–	NCC(=CF)COc1ccc(C(=O)N2CCc3ccccc3C2)cc1 [TM45, (4-((2-aminomethyl-3-fluoroallyl)oxy)phenyl)-(3,4-dihydroisoquinolin-2(1H)-yl)methanone trifluoroacetate]	> 10000
0.2	–	–	–	Cc1csc(-c2ccc(OCC(=CF)CN)cc2)n1 [TM70, 2-(4-(4-methylthiazolyl-2-phenoxy)methyl)-3-fluoroallylamine trifluoroacetate]	> 30000
0.5	99.7 ± 8.7	–	–	NCC(=CF)COc1ccc(C(=O)Nc2ccc(F)cc2)cc1 [TM61, N-(4-fluorophenyl)-4-((2-aminomethyl-3-fluoroallyl)oxy)-benzamide trifluoroacetate]	> 10000
2.4 ± 0.7	–	–	–	NC/C(=C\F)COc1ccc(C(=O)N2CCc3ccccc3C2)cc1 [TM45-E, (E)-(4-((2-aminomethyl-3-fluoroallyl)oxy)phenyl)-(3,4-di hydroisoquinoline-2 (1H)-yl)methanone trifluoroacetate]	> 10000
